# Calls of active or inactive are those of the source. No cut-off for these calls is given here.
# Key:
# [1] = system: 4T1; assay: Cytotoxicity against mouse 4T1 cells assessed as reduction in cell viability measured after 48 hrs by MTT assay; conditions: 4T1, 48 h
# [2] = system: Sarcoma-180; assay: Antitumor activity against Sarcoma-180 mouse model assessed as tumor weight at 10 umol/kg (reference value: 1.65 +/-0.2 gms); format: functional; conditions: dose 10 µmol/kg
# [3] = system: Sarcoma-180; assay: Antitumor activity against Sarcoma-180 mouse model assessed as inhibition of tumor growth at 10 umol/kg; format: functional
# [4] = target: Protein-arginine deiminase type-4 (Homo sapiens, UniProt Q9UM07); assay: Inhibition of PAD4 (unknown origin) using BAEE as substrate by colorimetric analysis
# Protein-arginine deiminase type-4, sequence (Q9UM07 whole entry): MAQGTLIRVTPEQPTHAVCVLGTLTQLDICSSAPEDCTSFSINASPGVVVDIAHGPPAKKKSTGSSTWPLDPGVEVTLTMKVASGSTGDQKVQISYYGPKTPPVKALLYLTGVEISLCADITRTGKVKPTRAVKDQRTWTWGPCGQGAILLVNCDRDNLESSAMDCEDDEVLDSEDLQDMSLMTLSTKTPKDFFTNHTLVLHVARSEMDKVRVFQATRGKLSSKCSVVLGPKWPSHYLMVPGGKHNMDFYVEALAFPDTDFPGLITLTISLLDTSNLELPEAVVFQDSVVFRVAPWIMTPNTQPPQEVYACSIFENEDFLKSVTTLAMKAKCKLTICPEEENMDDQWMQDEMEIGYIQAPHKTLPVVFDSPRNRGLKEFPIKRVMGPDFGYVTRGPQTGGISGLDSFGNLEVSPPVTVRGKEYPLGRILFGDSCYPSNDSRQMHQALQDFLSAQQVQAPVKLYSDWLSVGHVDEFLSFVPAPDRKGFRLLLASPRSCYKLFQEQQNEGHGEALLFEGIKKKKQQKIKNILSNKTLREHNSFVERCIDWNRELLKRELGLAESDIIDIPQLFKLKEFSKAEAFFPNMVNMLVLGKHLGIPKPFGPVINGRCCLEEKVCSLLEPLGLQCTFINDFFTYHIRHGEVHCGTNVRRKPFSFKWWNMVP
# [5] = target: Protein-arginine deiminase type-4 (Mus musculus) (UniProt Q9Z183); assay: Inhibition of PAD4 in mouse bone marrow neutrophils assessed as reduction in H3 cit expression by measuring red filamentous histone structure at 50 uM measured after 48 hrs by Hoechst33342 staining based confocal laser scanning microscopy; format: cell-based; conditions: Neutrophil
# Protein-arginine deiminase type-4 (Mus musculus), sequence (Q9Z183 whole entry): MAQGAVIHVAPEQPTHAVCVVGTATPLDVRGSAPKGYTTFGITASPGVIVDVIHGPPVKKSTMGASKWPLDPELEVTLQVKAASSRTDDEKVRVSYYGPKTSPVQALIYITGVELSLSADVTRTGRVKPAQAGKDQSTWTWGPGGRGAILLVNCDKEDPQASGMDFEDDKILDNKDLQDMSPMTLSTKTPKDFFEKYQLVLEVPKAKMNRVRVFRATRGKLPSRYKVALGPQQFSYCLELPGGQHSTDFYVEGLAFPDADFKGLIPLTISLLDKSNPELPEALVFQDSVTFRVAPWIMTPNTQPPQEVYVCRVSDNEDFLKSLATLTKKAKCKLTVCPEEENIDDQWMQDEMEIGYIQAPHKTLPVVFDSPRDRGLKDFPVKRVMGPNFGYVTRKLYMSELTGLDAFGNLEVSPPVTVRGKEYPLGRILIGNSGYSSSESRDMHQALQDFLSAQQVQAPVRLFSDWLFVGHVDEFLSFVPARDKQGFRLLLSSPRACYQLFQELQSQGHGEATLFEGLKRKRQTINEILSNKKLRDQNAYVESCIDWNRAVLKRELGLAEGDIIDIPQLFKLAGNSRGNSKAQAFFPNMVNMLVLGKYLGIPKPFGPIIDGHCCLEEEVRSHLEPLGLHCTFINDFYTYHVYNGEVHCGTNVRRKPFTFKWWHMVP
# [6] = system: 4T1; assay: Antitumor activity against mouse 4T1 cells xenografted in BALB/c mouse assessed as reduction in tumor volume at 10 umol/kg, iv for 21 days; format: functional, organism-based; conditions: dose 10.0 µmol/kg, time 21.0 day
# [7] = system: 4T1; assay: Antitumor activity against mouse 4T1 cells xenografted in BALB/c mouse assessed as reduction in tumor weight at 10 umol/kg, iv for 21 days; format: functional, organism-based; conditions: dose 10.0 µmol/kg, time 21.0 day
# [8] = Toxicity in BALB/c mouse xenografted with mouse 4T1 cells assessed as decrease in body weight at 10 umol/kg, iv measured after 9 to 15 days; format: organism-based; conditions: in vivo, time 9-15 day, dose 10 µmol/kg
# [9] = system: 4T1; assay: Anti-metastatic activity against mouse 4T1 cells xenografted in BALB/c mouse assessed as reduction in number of lung metastatic tumor nodules at 10 umol/kg, iv for 21 days; format: functional, organism-based; conditions: dose 10.0 µmol/kg, time 21.0 day
# [10] = Hepatotoxicity in BALB/c mouse xenografted with mouse 4T1 cells assessed as reduction in serum ALT level at 10 umol/kg, iv for 21 days; format: toxicity, organism-based; conditions: in vivo, 504 h, dose 10 µmol/kg, time 21 day
# [11] = Nephrotoxicity in BALB/c mouse xenografted with mouse 4T1 cells assessed as […] in serum creatinine level at 10 umol/kg, iv for 21 days; format: toxicity, organism-based; conditions: in vivo, 504 h, dose 10 µmol/kg, time 21 day
# [12] = Nephrotoxicity in BALB/c mouse xenografted with mouse 4T1 cells assessed as reduction in serum BUN level at 10 umol/kg, iv for 21 days; format: toxicity, organism-based; conditions: in vivo, 504 h, dose 10 µmol/kg, time 21 day
IC50 [4],inhibition [5],Compound,IC50 [1],Activity [2],inhibition in vivo at 10 µmol/kg [3],Activity [6],Activity [7],Activity [8],Activity [9],Activity [10],Activity [11],Activity [12]
–,–,N=C(CCl)NCCC[C@H](NC(=O)c1cccc(B(O)O)c1F)C(=O)NCc1ccccc1,> 100 µM,0.93 g,43.7%,–,–,–,–,–,–,–
–,–,N=C(CCl)NCCC[C@H](NC(=O)c1cc(F)cc(B(O)O)c1)C(=O)NCc1ccccc1,> 100 µM,1.01 g,38.7%,–,–,–,–,–,–,–
–,–,N=C(CCl)NCCC[C@H](NC(=O)c1ccc(B(O)O)cc1)C(=O)NCc1ccccc1,> 100 µM,0.98 g,40.3%,–,–,–,–,–,–,–
–,–,N=C(CCl)NCCC[C@H](NC(=O)c1cccc(B(O)O)c1)C(=O)NCc1ccccc1,> 100 µM,1.04 g,36.7%,–,–,–,–,–,–,–
–,–,N=C(CCl)NCCC[C@H](NC(=O)c1cc([N+](=O)[O-])c2nonc2c1)C(=O)NCc1ccc(B(O)O)cc1,> 100 µM,0.87 g,47.4%,–,–,–,–,–,–,–
2.86 µM,Active,CN(C)c1ccc2cc(C(=O)N[C@@H](CCCNC(=N)CCl)C(=O)NCc3ccccc3)ccc2c1,11.9 µM,0.94 g,42.7%,Active,Active,Toxic,Active,Toxic,Toxic,Toxic
